Read-outs that look alike come from different tables or passages of the source.
System: A375 Sensitive cells
Test: Viability test, trypan blue exclusion, A375 Sensitive cells
Assay type: cell-based, human
Conditions: Homo sapiens, A-375; for viability at 5 µM / viability at 10 µM: viable cells as percentage of DMSO control
Text: Different melanoma cell lines were purchased from the American Tissue Culture Collection: A375 and WM9 cells are mutated on B-Raf, CDKN2A and PTEN proteins; SKmel28 cells are mutated on B-Raf and P53 proteins; 1205Lu cells are mutated on B-Raf and PTEN proteins; G-361 cells are mutated on B-Raf and CDKN2A proteins; C8161 cells are mutated on B-Raf and K-Ras proteins; WM3912 cells are mutated on B-Raf and CDKN2A proteins; MeWo cells are mutated on P53 and CDKN2A proteins; WM3918 presents no mutations on characteristic proteins.
For trypan blue staining, […] of cells (melanoma and normal human cells) were aseptically transferred to a 1.5 mL clear Eppendorf tube and incubated for 3 min at room temperature with an equal volume of 0.4% trypan blue solution. Viable cells were counted and the results are expressed as the percentage of the value of control cells. All the experiments are performed 3 times in triplicate.
A375 Sensitive cells were treated with different concentrations of the synthesized molecules (5.0 μM or 10 μM) for different times (24 hr or 48 hr) or with DMSO (Control) for 12 or 48 hr. At the end of the stimulation, viable cells were counted using the trypan blue dye exclusion method. The results are normalized as percentages compare to the control.
A375 Sensitive cells were treated with 5 μM of CRO15 for different times (2 hr, 4 hr, 6 hr, 8 hr, 12 hr, 24 hr or 48 hr) or with 5 μM of PLX4032 (B-Raf inhibitor) for 48 hr or with DMSO (Control) for 48 hr. At the end of stimulation, viable cells were counted using the trypan blue dye exclusion method. The results are normalized as percentages compare to the control and data means±SEM of three independent experiments performed in triplicate *p<0.05; **p<0.01; ***p<0.001.
A375 Sensitive cells were treated with different concentrations of CRO15 (0.5 μM, 2.5 μM, 5.0 μM, 7.5 μM, 50 μM) for 48 hr or with 5 μM of PLX4032 (B-Raf inhibitor) for 48 hr or with DMSO (Control) for 48 hr. At the end of the stimulation, viable cells were counted using the trypan blue dye exclusion method. The results are normalized as percentages compare to the control and data means±SEM of three independent experiments performed in triplicate *p<0.05; **p<0.01; ***p<0.001.
A375 sensitive and resistant melanoma cells were treated with 5 μM of CRO15 for 48 hr or with 5 μM of PLX4032 for 48 hr or with DMSO (Control). At 48 hours, viable cells were counted using the trypan blue dye exclusion method. The results are normalized as percentages compare to the control and data means±SEM of three independent experiments performed in triplicate *p<0.05; **p<0.01; ***p<0.001.

[1] = 24 h, read-out: Viab A375 5 μM/ 24 h
[2] = 48 h, read-out: Viab A375 5 μM/ 48 h
[3] = 24 h, read-out: Viab A375 10 μM/ 24 h
[4] = 48 h, read-out: Viab A375 10 μM/ 48 h

SMILES	viability at 5 µM [1] [%]	viability at 5 µM [2] [%]	viability at 10 µM [3] [%]	viability at 10 µM [4] [%]	IC50 (A375, printed in the 10 μM/24 h column of Table 1, read-out: IC50 (converted)) [nM]
COc1ccc(Nc2nc(N)nc(C(Cl)(Cl)Cl)n2)c(SSc2cc(OC)ccc2Nc2nc(N)nc(C(Cl)(Cl)Cl)n2)c1 [MTF 232, N2,N2′-(disulfanediylbis(4-methoxy-2,1-phenylene))bis(6-(trichloromethyl)-1,3,5-triazine-2,4-diamine)]	83.3	24.9	33.9	16.4 ± 4.9	–
Nc1nc(Nc2ccc(Cl)cc2SSc2cc(Cl)ccc2Nc2nc(N)nc(C(Cl)(Cl)Cl)n2)nc(C(Cl)(Cl)Cl)n1 [MTF 233, N2,N2′-(disulfanediylbis(4-chloro-2,1-phenylene))bis(6-(trichloromethyl)-1,3,5-triazine-2,4-diamine)]	13.9	8.9	7	4.7	–
Nc1nc(Nc2ccc(F)cc2SSc2cc(F)ccc2Nc2nc(N)nc(C(Cl)(Cl)Cl)n2)nc(C(Cl)(Cl)Cl)n1 [MTF 234, N2,N2′-(disulfanediylbis(4-fluoro-2,1-phenylene))bis(6-(trichloromethyl)-1,3,5-triazine-2,4-diamine)]	29.6	17.4	9.6	7.8	–
N=C(NC(=N)c1cccc(Br)c1)Nc1nc2ccccc2s1 [MTF 242, N—(N-(benzo[d]thiazol-2-yl)carbamimidoyl)-3-bromobenzimidamide]	29.2	8.1	13.4	2.9	–
N=C(NC(=N)c1cccc(Cl)c1)Nc1nc2ccccc2s1 [MTF 243, N—(N-(benzo[d]thiazol-2-yl)carbamimidoyl)-3-chlorobenzimidamide]	22.1	7	12.1	2.7	–
N=C(NC(=N)c1ccccc1Cl)Nc1nc2ccccc2s1 [MTF 244, N—(N-(benzo[d]thiazol-2-yl)carbamimidoyl)-2-chlorobenzimidamide]	81.6	68	84.9	68.4	–
N=C(NC(=N)c1ccc(Cl)cc1)Nc1nc2ccccc2s1 [MTF 245, N—(N-(benzo[d]thiazol-2-yl)carbamimidoyl)-4-chlorobenzimidamide]	95	100	83	79.6	–
Cc1ccc(C(=N)NC(=N)Nc2nc3ccccc3s2)cc1 [MTF 246, N—(N-(benzo[d]thiazol-2-yl)carbamimidoyl)-4-methylbenzimidamide]	137	91	94	115	–
N=C(NC(=N)c1ccc(I)cc1)Nc1nc2ccccc2s1 [MTF 247, N—(N-(benzo[d]thiazol-2-yl)carbamimidoyl)-4-iodobenzimidamide]	100	135	122	100	–
N=C(NC(=N)c1ccccc1)Nc1nc2ccccc2s1 [MTF 248, N—(N-(benzo[d]thiazol-2-yl)carbamimidoyl)benzimidamide]	100	100	80	138	–
N=C(NC(=N)c1ccccc1F)Nc1nc2ccccc2s1 [MTF 249, N—(N-(benzo[d]thiazol-2-yl)carbamimidoyl)-2-fluorobenzimidamide]	25.4	10.6	14.4	8.9	–
N=C(NC(=N)c1ccccc1Br)Nc1nc2ccccc2s1 [MTF 250, N—(N-(benzo[d]thiazol-2-yl)carbamimidoyl)-2-bromobenzimidamide]	25.4	8.9	12	2.4	–
N=C(NC(=N)c1ccccn1)Nc1nc2ccccc2s1 [MTF 251, N—(N-(benzo[d]thiazol-2-yl)carbamimidoyl)picolinimidamide]	48.9	44.7	45.1	19.5	–
N=C(NC(=N)c1cccnc1)Nc1nc2ccccc2s1 [MTF 252, N—(N-(benzo[d]thiazol-2-yl)carbamimidoyl)nicotinimidamide]	8.6	5.2	12.9	2.6	–
N=C(NC(=N)c1ccncc1)Nc1nc2ccccc2s1 [MTF 253, N—(N-(benzo[d]thiazol-2-yl)carbamimidoyl)isonicotinimidamide]	27.8	6.9	14.9	4.1	–
COc1ccc(C(=N)NC(=N)Nc2nc3ccccc3s2)cc1 [MTF 254, N—(N-(benzo[d]thiazol-2-yl)carbamimidoyl)-4-methoxybenzimidamide]	100	100	100	100	–
CC(=O)c1cccc(C(=N)NC(=N)Nc2nc3ccccc3s2)c1 [MTF 255, 3-acetyl-N—(N-(benzo[d]thiazol-2-yl)carbamimidoyl)benzimidamide]	26.1	4.7	3.2	3.8	2300
N=C(NC(=N)c1cccc(Br)c1)Nc1nc(-c2ccccc2)cs1 [MTF 256, 3-bromo-N—(N-(4-phenylthiazol-2-yl)carbamimidoyl)benzimidamide]	93.9	60	66	95.7	–
N=C(NC(=N)c1cccc(Br)c1)Nc1nc(-c2cccc([N+](=O)[O-])c2)cs1 [MTF 257, 3-bromo-N—(N-(4-(3-nitrophenyl)thiazol-2-yl)carbamimidoyl)benzimidamide]	100	80.5	106	62	–
N=C(NC(=N)c1ccccn1)Nc1nc(-c2cccc([N+](=O)[O-])c2)cs1 [MTF 259, N—(N-(4-(3-nitrophenyl)thiazol-2-yl)carbamimidoyl)picolinimidamide]	157	95.7	98	96.5	–
N=C(NC(=N)c1cccnc1)Nc1nc(-c2cccc([N+](=O)[O-])c2)cs1 [MTF 260, N—(N-(4-(3-nitrophenyl)thiazol-2-yl)carbamimidoyl)nicotinimidamide]	57	32	76.7	78	–
N=C(NC(=N)c1ccncc1)Nc1nc(-c2cccc([N+](=O)[O-])c2)cs1 [MTF 261, N—(N-(4-(3-nitrophenyl)thiazol-2-yl)carbamimidoyl)isonicotinimidamide]	24.6	63.6	71.9	115	–
COc1ccc(C(=N)NC(=N)Nc2nc(-c3ccccc3)cs2)cc1 [MTF 262, 4-methoxy-N—(N-(4-phenylthiazol-2-yl)carbamimidoyl)benzimidamide]	61.4	43.7	40.8	27.3	–
N=C(NC(=N)c1ccccn1)Nc1nc(-c2ccccc2)cs1 [MTF 263, N—(N-(4-phenylthiazol-2-yl)carbamimidoyl)picolinimidamide]	89.5	91	100	66	–
COc1ccc2nc(NC(=N)NC(=N)c3cccc(Br)c3)sc2c1 [MTF 264, 3-bromo-N—(N-(6-methoxybenzo[d]thiazol-2-yl)carbamimidoyl)benzimidamide]	87	–	89	99	–

Source: patent publication US11440906B2, “Biguanide derivatives and their rearrangement products for use in the treatment of cancer” (CENTRE NATIONAL DE LA RECHERCHE SCIENTIFIQUE, priority 2017, dated 2022)
